Where two headings read alike, the source gives them in different places.

For experiment [1], the target named is T1, 11β-hsd-1 enzyme (Homo sapiens, UniProt P28845). Put plainly: 11β-hsd-1 enzyme assay, Kiapp determination (3H-cortisone to cortisol, radio-HPLC). The following applies: read-out: Ki app. The experiment is classed as biochemical.
The target in experiment [2] is T1, 11β-hsd-1 enzyme. The experiment in a line: 11β-hsd-1 enzyme assay, percentage of inhibition (3H-cortisone to cortisol, radio-HPLC). The experiment is classed as biochemical. The following applies: for inhibition at 0.1 µM: read-out: % inh @ 0.1 uM.

T1 sequence (P28845 whole entry, species assumed): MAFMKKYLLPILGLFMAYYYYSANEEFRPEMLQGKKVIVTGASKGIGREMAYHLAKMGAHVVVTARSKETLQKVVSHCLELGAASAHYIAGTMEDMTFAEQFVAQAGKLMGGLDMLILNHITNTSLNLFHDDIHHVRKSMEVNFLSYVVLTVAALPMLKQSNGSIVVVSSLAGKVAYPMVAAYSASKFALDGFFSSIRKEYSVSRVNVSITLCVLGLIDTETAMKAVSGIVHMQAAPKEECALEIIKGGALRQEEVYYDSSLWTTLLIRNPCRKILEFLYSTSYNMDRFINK

As to `CCOC(=O)Cc1cccc(NS(=O)(=O)c2cccc(Cl)c2C)n1` [Example 1, Ethyl [6-(3-Chloro-2-methyl-benzenesulfonylamino)-pyridin-2-yl]-acetate], the Ki at 11β-hsd-1 enzyme [1] is 42 nM. For the same compound, the inhibition at 0.1 µM on 11β-hsd-1 enzyme [2] (0.1 uM) turned out to be 72.3%. The like results for `CCOC(=O)Cc1cccc(NS(=O)(=O)c2ccc(-c3ccc(C#N)cc3)cc2)n1` [Example 2] were, in that order, 16 nM and 85.4%. The like results for `CCOC(=O)Cc1cccc(NS(=O)(=O)c2sc3ccc(Cl)cc3c2C)n1` [Example 6] were, in that order, 2.8 nM and 100%. The like results for `CCN(CC)C(=O)Cc1cccc(NS(=O)(=O)c2sc3ccc(Cl)cc3c2C)n1` [Example 19, 2-[6-(5-Chloro-3-methyl-benzo[b]thiophene-2-sulfonylamino)-pyridin-2-yl]-N,N-diethyl-acetamide] were, in that order, 4.8 nM and 96.9%. For the compound `CCN(CC)C(=O)Cc1cccc(NS(=O)(=O)c2cccc(Cl)c2C)n1` [Example 20], the Ki at 11β-hsd-1 enzyme [1] was determined as 220 nM.

For `CCN(CC)C(=O)Cc1cccc(NS(=O)(=O)c2ccc(C(F)(F)F)cc2)n1` [Example 21], the Ki at 11β-hsd-1 enzyme [1] worked out at 480 nM. Regarding `CCN(CC)C(=O)Cc1cccc(NS(=O)(=O)c2ccc3ccccc3c2)n1` [Example 22], the Ki on 11β-hsd-1 enzyme [1] turned out to be 170 nM. Further, at 11β-hsd-1 enzyme [2] (0.1 uM), the inhibition at 0.1 µM was determined as 44.7%. In the case of `Cc1cccc(NS(=O)(=O)c2ccc(-c3ccc(C#N)cc3)cc2)n1` [Example 33, 4′-Cyano-biphenyl-4-sulfonic acid (6-methyl-pyridin-2-yl)-amide], the Ki on 11β-hsd-1 enzyme [1] stood at 6.4 nM. Also, the inhibition at 0.1 µM at 11β-hsd-1 enzyme [2] (0.1 uM) turned out to be 97%. For `Cc1cccc(NS(=O)(=O)c2cccc(Cl)c2C)n1` [Example 34], the Ki at 11β-hsd-1 enzyme [1] was found to be 169 nM. On 11β-hsd-1 enzyme [2] (0.1 uM), the inhibition at 0.1 µM came to 48.8%. As to `Cc1cccc(NS(=O)(=O)c2ccc(C(F)(F)F)cc2)n1` [Example 35], at 11β-hsd-1 enzyme [1], the Ki amounted to 108 nM. The inhibition at 0.1 µM at 11β-hsd-1 enzyme [2] (0.1 uM) is 98%. Consider `Cc1cccc(NS(=O)(=O)c2ccc(-c3ccccc3)cc2)n1` [Example 36], for which the Ki at 11β-hsd-1 enzyme [1] came to 48 nM. Besides, on 11β-hsd-1 enzyme [2] (0.1 uM), the inhibition at 0.1 µM was 52%. The like results for `Cc1cccc(NS(=O)(=O)c2ccc3ccccc3c2)n1` [Example 37] were, in that order, 84 nM and 45%. `Cc1cccc(NS(=O)(=O)c2cccc(Cl)c2C)n1` [Example 38]: the Ki at 11β-hsd-1 enzyme [1] worked out at 169 nM. For the same compound, at 11β-hsd-1 enzyme [2] (0.1 uM), the “% inh @ 0.1 uM” value is recorded as 49%. `Nc1cccc(NS(=O)(=O)c2ccc(C(F)(F)F)cc2)n1` [Example 39]: the Ki on 11β-hsd-1 enzyme [1] turned out to be 9 nM. Moreover, the inhibition at 0.1 µM on 11β-hsd-1 enzyme [2] (0.1 uM) is 96%.

On to `Nc1cccc(NS(=O)(=O)c2ccc(-c3ccccc3)cc2)n1` [Example 40], for which the Ki on 11β-hsd-1 enzyme [1] stood at 4.3 nM. Moreover, on 11β-hsd-1 enzyme [2] (0.1 uM), the inhibition at 0.1 µM was 98%.

In the case of `Cc1c(Cl)cccc1S(=O)(=O)Nc1cccc(N)n1` [Example 41], the Ki at 11β-hsd-1 enzyme [1] was 17 nM. Further, on 11β-hsd-1 enzyme [2] (0.1 uM), the inhibition at 0.1 µM worked out at 94%. The like results for `Nc1cccc(NS(=O)(=O)c2ccc(-c3ccc(Cl)cc3)cc2)n1` [Example 42] were, in that order, 4.6 nM and 96%. With `Nc1cccc(NS(=O)(=O)c2ccc(-c3ccc(F)cc3)cc2)n1` [Example 43], the Ki on 11β-hsd-1 enzyme [1] was found to be 8.1 nM. Further, on 11β-hsd-1 enzyme [2] (0.1 uM), the inhibition at 0.1 µM was found to be 98%.

Take `Cc1cccc(NS(=O)(=O)c2sc3ccc(Cl)cc3c2C)n1` [Example 46]: the Ki at 11β-hsd-1 enzyme [1] came to 3.2 nM. Also, the inhibition at 0.1 µM at 11β-hsd-1 enzyme [2] (0.1 uM) was determined as 98%. The like results for `O=S(=O)(Nc1ccc2ccccc2n1)c1ccc(-c2ccc(F)cc2)cc1` [Example 48] were, in that order, 14.5 nM and 90%. The like results for `CCc1cccc(NS(=O)(=O)c2cccc(Cl)c2C)n1` [Example 56] were, in that order, 47.6 nM and 66.8%. The like results for `Cc1cc(C)nc(NS(=O)(=O)c2ccc(-c3ccccc3)cc2)c1` [Example 65] were, in that order, 18.3 nM and 59.4%. For the compound `COc1ccc(NS(=O)(=O)c2sc3ccc(Cl)cc3c2C)nn1` [Example 68], the Ki at 11β-hsd-1 enzyme [1] is 8.3 nM. The inhibition at 0.1 µM at 11β-hsd-1 enzyme [2] (0.1 uM) was 100%. Taken in the same sequence, the figures for `CCc1cccc(NS(=O)(=O)c2sc3ccc(Cl)cc3c2C)n1` [Example 69] were 1.1 nM and 100%. The like results for `Cc1cccc(NS(=O)(=O)c2ccc(C(C)C)cc2)n1` [Example 70] were, in that order, 216 nM and 78.7%. The like results for `CCc1cccc(NS(=O)(=O)c2ccc(C(F)(F)F)cc2)n1` [Example 71] were, in that order, 34.6 nM and 66%. With `Cc1cccc(NS(=O)(=O)c2cc3ccccc3s2)n1` [Example 72], the Ki at 11β-hsd-1 enzyme [1] stood at 30.9 nM. Further, the inhibition at 0.1 µM at 11β-hsd-1 enzyme [2] (0.1 uM) stood at 74.6%.

In the case of `N#Cc1ccc(-c2ccc(S(=O)(=O)Nc3ccc4occc4n3)cc2)cc1` [Example 86], the Ki on 11β-hsd-1 enzyme [1] is 14.3 nM. Moreover, the inhibition at 0.1 µM on 11β-hsd-1 enzyme [2] (0.1 uM) came to 100%. Taken in the same sequence, the figures for `N#Cc1ccc(-c2ccc(S(=O)(=O)Nc3ccc4ccccc4n3)cc2)cc1` [Example 87] were 3.6 nM and 100%. Turning to `Cc1cccc(NS(=O)(=O)c2sc3ccc(C#N)cc3c2C)n1` [Example 91], the Ki at 11β-hsd-1 enzyme [1] was 2.3 nM. Besides, the inhibition at 0.1 µM at 11β-hsd-1 enzyme [2] (0.1 uM) stood at 100%. The like results for `Cc1cccc(NS(=O)(=O)c2ccc3ccc(Cl)cc3c2)n1` [Example 93] were, in that order, 42.3 nM and 70%. Consider `Nc1cccc(NS(=O)(=O)c2ccc(-c3ccc(C(F)(F)F)cc3)cc2)n1` [Example 95], for which the Ki at 11β-hsd-1 enzyme [1] stood at 4.4 nM. For the same compound, the inhibition at 0.1 µM at 11β-hsd-1 enzyme [2] (0.1 uM) amounted to 100%. Taken in the same sequence, the figures for `Cc1cc(C)nc(NS(=O)(=O)c2ccc(-c3ccc(C#N)cc3)cc2)c1` [Example 96] were 7 nM and 100%. In the case of `Cc1cccc(NS(=O)(=O)c2ccc(-c3cn[nH]c3)cc2)n1` [Example 250], the inhibition at 0.1 µM at 11β-hsd-1 enzyme [2] (compound at 0.1 uM) is 17%. As for `Cc1cccc(NS(=O)(=O)c2ccc(-c3ccc(O)cc3)cc2)n1` [Example 252], at 11β-hsd-1 enzyme [2] (compound at 0.1 uM), the inhibition at 0.1 µM was determined as 44%.

As to `COc1ccc(-c2ccc(S(=O)(=O)Nc3cccc(C)n3)cc2)c(C)c1` [Example 255], at 11β-hsd-1 enzyme [2] (compound at 0.1 uM), the inhibition at 0.1 µM came to 64.6%. The same measure, in the same setting: then `Cc1cccc(NS(=O)(=O)c2ccc(-c3ccccn3)cc2)n1` [Example 259, N-(6-Methyl-pyridin-2-yl)-4-pyridin-2-yl-benzenesulfonamide trifuoroacetate], with 30%. The same measure, in the same setting: the same measure for `Cc1cccc(NS(=O)(=O)c2ccc(-c3cn(C)cn3)cc2)n1` [Example 260]: 14.8%; for `Cc1cccc(NS(=O)(=O)c2ccc(-c3ncccn3)nc2)n1` [Example 261]: 2.6%. For `Cc1cccc(NS(=O)(=O)c2ccc(-c3ccc(C(N)=O)cc3)cc2)n1` [Example 262, 4′-(6-Methyl-pyridin-2-ylsulfamoyl)-biphenyl-4-carboxylic acid amide], the inhibition at 0.1 µM on 11β-hsd-1 enzyme [2] (compound at 0.1 uM) was determined as 45.7%. On the same count and under the same terms, the same measure for `Cc1cccc(NS(=O)(=O)c2ccc(-c3ccc(OCCN)cc3)cc2)n1` [Example 263, 4′-(2-Amino-ethoxy)-biphenyl-4-sulfonic acid (6-methyl-pyridin-2-yl)-amide]: 11.8%; for `Cc1cccc(NS(=O)(=O)c2ccc(-c3cnco3)cc2)n1` [Example 264, N-(6-Methyl-pyridin-2-yl)-4-oxazol-5-yl-benzenesulfonamide]: 39.7%. The same measure, in the same setting: then `Cc1cccc(N(CCN(C)C)S(=O)(=O)c2ccc(-c3ccc(C#N)cc3)cc2)n1` [Example 265, 4′-Cyano-biphenyl-4-sulfonic acid (2-dimethylamino-ethyl)-(6-methyl-pyridin-2-yl)-amide], with 11.4%; and `Cc1cccc(N(CCO)S(=O)(=O)c2ccc(-c3ccc(C#N)cc3)cc2)n1` [Example 266, 4′-Cyano-biphenyl-4-sulfonic acid (2-hydroxy-ethyl)-(6-methyl-pyridin-2-yl)-amide], with 9.6%. Same read-out and setting: then `Cc1cccc(NS(=O)(=O)c2ccc(N3CCCCC3)nc2)n1` [Example 269, N-(6-methylpyridin-2-yl)-6-piperidin-1-ylpyridine-3-sulfonamide], with 2.4%; and `Cc1cccc(NS(=O)(=O)c2ccc(-c3ccc(C#N)cn3)cc2)n1` [Example 275], with 85.7%. Regarding `COc1cc(-c2ccc(C#N)cc2)ccc1S(=O)(=O)Nc1cccc(C)n1` [Example 276, 4′-Cyano-3-methoxy-biphenyl-4-sulfonic acid (6-methyl-pyridin-2-yl)-amide], the inhibition at 0.1 µM at 11β-hsd-1 enzyme [2] (compound at 0.1 uM) came out at 60.1%. Still for that read-out and setting: then `COc1ccc(C)nc1NS(=O)(=O)c1ccc(-c2ccc(C)cc2)cc1` [Example 278], with 42.8%; and `O=S(=O)(Nc1ccc2ccccc2n1)c1ccc(-c2ccccn2)cc1` [Example 287, 4-Pyridin-2-yl-N-quinolin-2-yl-benzenesulfonamide], with 67.1%. Same read-out and setting: the same measure for `Cc1c(Cl)cccc1S(=O)(=O)Nc1cccc(NC(=O)C2CCCN2)n1` (stereo not shown) [Example 296, Pyrrolidine-2-carboxylic acid [6-(3-chloro-2-methyl-benzenesulfonylamino)-pyridin-2-yl]-amide]: 16%.

For `Cc1cccc(NS(=O)(=O)N2CCC(c3ccncc3)C2)n1` (stereo not shown) [Example 297, 3-Pyridin-4-yl-pyrrolidine-1-sulfonic acid (6-methyl-pyridin-2-yl)-amide], the inhibition at 0.1 µM on 11β-hsd-1 enzyme [2] (compound at 0.1 uM) came out at 3.4%.

For the compound `Cc1cccc(NS(=O)(=O)N2Cc3ccccc3C2)n1` [Example 298], the inhibition at 0.1 µM on 11β-hsd-1 enzyme [2] (compound at 0.1 uM) stood at 13.3%. Still for that read-out and setting: then `Cc1cccc(NS(=O)(=O)N2CCN3CCC[C@H]3C2)n1` [Example 302], with 18.1%. Same read-out and setting: then `Cc1cccc(NS(=O)(=O)N2CCC(C#N)(c3ccccc3)CC2)n1` [Example 305], with 1.1%; and `Cc1cccc(NS(=O)(=O)N2CCC(c3ccccc3)(c3ccccc3)CC2)n1` [Example 307], with 29.5%. Turning to `Cc1nnc2n1CCN(S(=O)(=O)Nc1ccc3ccccc3n1)CC2` [Example 312], the inhibition at 0.1 µM on 11β-hsd-1 enzyme [2] (compound at 0.1 uM) was 6.9%. On to `Cc1cccc(NS(=O)(=O)N2CC(Oc3ccc(F)cc3)C2)n1` [Example 313], for which, at 11β-hsd-1 enzyme [2] (compound at 0.1 uM), the inhibition at 0.1 µM worked out at 27.2%.
